From PubChem BioAssay AID248 (DTP/NCI, 2004)
Several values for one entry are separate records, joined by “and”; a condition that tells them apart may be missing. Equal entries are not always repeated. Toxic doses and inconclusive results are not listed. Rule as the data show it: active = T/C of 150% or more; inactive = T/C below 125%.

Tested on: L1210 leukemia ip in BDF1 mice, survival T/C
Assay: NCI In Vivo Anticancer Drug Screen. Data for tumor model L1210 Leukemia (intraperitoneal) in B6D2F1 (BDF1) mice
Details: endpoint: mean survival time, higher = longer survival
In short: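 Transplantable tumor model; survival measured in treated vs vehicle control mice. Value = treated/control.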

[1] = dose: 100.0 mg/kg/injection, schedule: Q01DX001 (ip), vehicle: saline
[2] = dose: 200.0 mg/kg/injection, schedule: Q01DX001 (ip), vehicle: saline
[3] = dose: 50.0 mg/kg/injection, schedule: Q01DX009 (ip), vehicle: saline with Tween-80
[4] = dose: 100.0 mg/kg/injection, schedule: Q01DX009 (ip), vehicle: saline with Tween-80
[5] = dose: 200.0 mg/kg/injection, schedule: Q01DX009 (ip), vehicle: saline with Tween-80
[6] = dose: 100.0 mg/kg/injection, schedule: Q04DX003 (ip), vehicle: saline
[7] = dose: 200.0 mg/kg/injection, schedule: Q04DX003 (ip), vehicle: saline
[8] = dose: 400.0 mg/kg/injection, schedule: Q04DX003 (ip), vehicle: saline
[9] = dose: 400.0 mg/kg/injection, schedule: Q01DX001 (ip), vehicle: saline
[10] = dose: 100.0 mg/kg/injection, schedule: Q01DX009 (ip), vehicle: saline
[11] = dose: 200.0 mg/kg/injection, schedule: Q01DX009 (ip), vehicle: saline
[12] = dose: 400.0 mg/kg/injection, schedule: Q01DX009 (ip), vehicle: saline
[13] = dose: 100.0 mg/kg/injection, schedule: Q01DX001 (ip), vehicle: carboxymethylcellulose (CMC)
[14] = dose: 200.0 mg/kg/injection, schedule: Q01DX001 (ip), vehicle: carboxymethylcellulose (CMC)
[15] = dose: 400.0 mg/kg/injection, schedule: Q01DX001 (ip), vehicle: carboxymethylcellulose (CMC)

Measured: T/C

Cc1cccc(NCC(=O)NN)c1C
inactive: dose: 50.0 mg/kg/injection, schedule: Q01DX009 (ip), vehicle: carboxymethylcellulose (CMC) 102 % of control and 104 % of control | dose: 50.0 mg/kg/injection, schedule: Q04DX002 (ip), vehicle: carboxymethylcellulose (CMC) 96 % of control and 101 % of control | dose: 50.0 mg/kg/injection, schedule: Q04DX003 (ip), vehicle: carboxymethylcellulose (CMC) 102 % of control | dose: 100.0 mg/kg/injection, schedule: Q01DX009 (ip), vehicle: carboxymethylcellulose (CMC) 104 % of control and 106 % of control | dose: 100.0 mg/kg/injection, schedule: Q04DX002 (ip), vehicle: carboxymethylcellulose (CMC) 101 % of control and 103 % of control | dose: 100.0 mg/kg/injection, schedule: Q04DX003 (ip), vehicle: carboxymethylcellulose (CMC) 102 % of control | dose: 200.0 mg/kg/injection, schedule: Q01DX009 (ip), vehicle: carboxymethylcellulose (CMC) 97 % of control | dose: 200.0 mg/kg/injection, schedule: Q04DX002 (ip), vehicle: Klucel (hydroxypropylcellulose) (HPC) 92 % of control | dose: 200.0 mg/kg/injection, schedule: Q04DX002 (ip), vehicle: carboxymethylcellulose (CMC) 104 % of control and 107 % of control | dose: 200.0 mg/kg/injection, schedule: Q04DX003 (ip), vehicle: carboxymethylcellulose (CMC) 90 % of control | dose: 400.0 mg/kg/injection, schedule: Q04DX002 (ip), vehicle: Klucel (hydroxypropylcellulose) (HPC) 113 % of control

CC1CCC2C(CCC3CCCCC32)C1 (configuration not stated)
inactive: [1] 107 % of control | [2] 107 % of control

NC(=O)N/N=C1\CC2CCC1C2Cl (configuration not stated)
inactive: dose: 75.0 mg/kg/injection, schedule: Q01DX001 (ip), vehicle: saline 100 % of control and 107 % of control | dose: 150.0 mg/kg/injection, schedule: Q01DX001 (ip), vehicle: saline 96 % of control | dose: 300.0 mg/kg/injection, schedule: Q01DX001 (ip), vehicle: saline 98 % of control and 88 % of control

O=Cc1cc2ccccc2[nH]1
inactive: dose: 100.0 mg/kg/injection, schedule: Q04DX002 (ip), vehicle: saline with Tween-80 105 % of control | dose: 200.0 mg/kg/injection, schedule: Q04DX002 (ip), vehicle: saline with Tween-80 102 % of control | dose: 400.0 mg/kg/injection, schedule: Q04DX002 (ip), vehicle: saline with Tween-80 102 % of control

Nc1ccc(OCCNC(=O)Nc2ccc(S(=O)(=O)F)cc2)c(Cl)c1
inactive: dose: 75.0 mg/kg/injection, schedule: Q01DX001 (ip), vehicle: other 96 % of control | dose: 150.0 mg/kg/injection, schedule: Q01DX001 (ip), vehicle: other 105 % of control | dose: 300.0 mg/kg/injection, schedule: Q01DX001 (ip), vehicle: other 98 % of control

CN(C)c1ccc(/C=N/NC(=O)CNC(=O)c2ccc(Cl)c(Cl)c2)cc1
inactive: [3] 86 % of control | [4] 94 % of control | [5] 88 % of control

Cc1cc(C(N)=O)c(C#N)c(=O)[nH]1
inactive: dose: 75.0 mg/kg/injection, schedule: Q01DX001 (ip), vehicle: steriod suspending solution 94 % of control | dose: 150.0 mg/kg/injection, schedule: Q01DX001 (ip), vehicle: steriod suspending solution 95 % of control

CCCNC(=O)/C=C/C(=O)NCCC
inactive: [6] 100 % of control | [7] 100 % of control | [8] 100 % of control

CC(=O)OC1COC(n2cnc3c(N4CCCCC4)nc(Cl)nc32)C(OC(C)=O)C1OC(C)=O (configuration not stated)
inactive: [1] 102 % of control | [2] 96 % of control | [9] 102 % of control

CC1(C)OC(=O)CC(=O)O1
inactive: [4] 94 % of control | [10] 100 % of control | [6] 91 % of control | [5] 94 % of control | [11] 93 % of control | [7] 91 % of control | [12] 87 % of control | [8] 93 % of control

C=C[P+](c1ccccc1)(c1ccccc1)c1ccccc1
inactive: dose: 0.78 mg/kg/injection, schedule: Q01DX009 (ip), vehicle: saline 124 % of control | dose: 1.56 mg/kg/injection, schedule: Q01DX009 (ip), vehicle: saline 104 % of control | dose: 1.56 mg/kg/injection, schedule: Q04DX003 (ip), vehicle: saline 108 % of control | dose: 3.12 mg/kg/injection, schedule: Q01DX009 (ip), vehicle: saline 93 % of control | dose: 3.12 mg/kg/injection, schedule: Q04DX003 (ip), vehicle: saline 112 % of control | dose: 5.0 mg/kg/injection, schedule: Q01DX001 (ip), vehicle: saline 115 % of control | dose: 8.88 mg/kg/injection, schedule: Q01DX001 (ip), vehicle: saline 102 % of control and 104 % of control | dose: 10.0 mg/kg/injection, schedule: Q01DX001 (ip), vehicle: saline 115 % of control | dose: 10.0 mg/kg/injection, schedule: Q04DX003 (ip), vehicle: saline 98 % of control | dose: 13.34 mg/kg/injection, schedule: Q01DX001 (ip), vehicle: saline 102 % of control and 104 % of control | dose: 20.0 mg/kg/injection, schedule: Q01DX001 (ip), vehicle: saline 102 % of control and 104 % of control | dose: 20.0 mg/kg/injection, schedule: Q04DX003 (ip), vehicle: saline 92 % of control | dose: 30.0 mg/kg/injection, schedule: Q01DX001 (ip), vehicle: saline 101 % of control and 105 % of control | dose: 40.0 mg/kg/injection, schedule: Q01DX001 (ip), vehicle: saline 97 % of control

COc1cc(N)ccc1/C=C/C(=O)O
inactive: [6] 97 % of control | [7] 98 % of control | [8] 92 % of control

COc1ccc(NC(=O)CSc2cc(Cl)ccc2Cl)cc1
inactive: [13] 102 % of control | [14] 96 % of control | [15] 90 % of control

C[n+]1c(O)c(C(=O)CCl)n2ccccc21
inactive: [10] 94 % of control | [11] 91 % of control | [12] 92 % of control

NC(N)=NCC(=O)O
inactive: dose: 75.0 mg/kg/injection, schedule: Q01DX001 (ip), vehicle: saline with Tween-80 105 % of control | dose: 150.0 mg/kg/injection, schedule: Q01DX001 (ip), vehicle: saline with Tween-80 100 % of control | dose: 300.0 mg/kg/injection, schedule: Q01DX001 (ip), vehicle: saline with Tween-80 102 % of control

CSc1sc2ccc(S(=O)(=O)O)cc2[n+]1C
inactive: dose: 100.0 mg/kg/injection, schedule: Q04DX003 (ip), vehicle: saline with Tween-80 97 % of control | dose: 200.0 mg/kg/injection, schedule: Q04DX003 (ip), vehicle: saline with Tween-80 94 % of control

O=NN1CCN(c2ccccc2)C1=O
inactive: dose: 18.0 mg/kg/injection, schedule: Q01DX001 (ip), vehicle: carboxymethylcellulose (CMC) 94 % of control | dose: 37.0 mg/kg/injection, schedule: Q01DX001 (ip), vehicle: carboxymethylcellulose (CMC) 96 % of control | dose: 75.0 mg/kg/injection, schedule: Q01DX001 (ip), vehicle: carboxymethylcellulose (CMC) 102 % of control | [13] 98 % of control | dose: 150.0 mg/kg/injection, schedule: Q01DX001 (ip), vehicle: carboxymethylcellulose (CMC) 98 % of control | [14] 104 % of control | dose: 250.0 mg/kg/injection, schedule: Q01DX001 (ip), vehicle: carboxymethylcellulose (CMC) 96 % of control | dose: 300.0 mg/kg/injection, schedule: Q01DX001 (ip), vehicle: carboxymethylcellulose (CMC) 105 % of control | [15] 98 % of control | dose: 500.0 mg/kg/injection, schedule: Q01DX001 (ip), vehicle: carboxymethylcellulose (CMC) 106 % of control | dose: 600.0 mg/kg/injection, schedule: Q01DX001 (ip), vehicle: carboxymethylcellulose (CMC) 91 % of control | dose: 800.0 mg/kg/injection, schedule: Q01DX001 (ip), vehicle: carboxymethylcellulose (CMC) 96 % of control

Cc1cc(N)c(C(=O)O)cc1C
inactive: dose: 50.0 mg/kg/injection, schedule: Q01DX001 (ip), vehicle: saline 104 % of control | [1] 107 % of control | [2] 104 % of control | [9] 104 % of control

O=NN(CCCl)C(=O)Nc1ccccc1C(=O)O
inactive: dose: 6.0 mg/kg/injection, schedule: Q01DX001 (ip), vehicle: carboxymethylcellulose (CMC) 121 % of control
active: dose: 9.0 mg/kg/injection, schedule: Q01DX001 (ip), vehicle: carboxymethylcellulose (CMC) 156 % of control

Cc1nc2nc(C(F)(F)F)[nH]c2nc1C
inactive: [3] 98 % of control | [4] 96 % of control and 120 % of control | [5] 101 % of control and 102 % of control

CCOC(=O)Nc1cc(NC(c2ccc(Cl)cc2)c2ccc(Cl)cc2)c2[nH]cnc2n1
inactive: dose: 25.0 mg/kg/injection, schedule: Q01DX009 (ip), vehicle: other 96 % of control | dose: 50.0 mg/kg/injection, schedule: Q01DX009 (ip), vehicle: other 111 % of control
